{"source": "patent US20140314780A1", "about": "“Compositions Using Antibodies Directed to GPNMB and Uses Thereof” (Celldex Therapeutics, Inc., priority 2008, published 2014)", "key": {"[1]": {"system": "MART-1, TYRP-2, TYRP-1, PMEL17, MAGEA1, MCSP, MTf, MCAM", "details": "melanoma cell lines, U0126 20 μM, 48 hours (FIG. 5)", "protocol": "Cells were seeded in 6-well tissue culture dishes at a subconfluent density and allowed to attach overnight. For harvesting cell lysates, media was removed, cells were briefly washed with serum-free media and then 1× Tris-glycine SDS sample buffer (Invitrogen, Carlsbad, Calif.) supplemented with 10 mM dithiothreitol (Sigma) was added directly to the wells. Cell lysates were then collected and boiled for 10 minutes. For preparing conditioned media, drug treatments were performed in a minimum volume of growth media (1.5 mL/well). Following 48 hours of incubation, conditioned media was collected, briefly microfuged, mixed with an equal volume of 2× Tris-glycine SDS sample buffer (Invitrogen, Carlsbad, Calif.) supplemented with 20 mM dithiothreitol (Sigma) and boiled for 10 minutes. For cell lysates, samples were quantified and an equal quantity of protein/lane was resolved on 4-20% gradient polyacrylamide gels (Invitrogen) and then transferred to nitrocellulose filters (Invitrogen). The volume of conditioned media loaded/lane was adjusted based on the protein concentration determined in the respective cell lysates. […]"}, "[2]": {"system": "GPNMB surface expression on SKMEL2 melanoma cells", "experiment": "Flow cytometry of GPNMB surface expression, SKMEL2 cells", "assay_type": "cell-based, human", "details": "SKMEL2; CR011 (anti-GPNMB) primary antibody; MEKi (U0126) 10 uM, imatinib 20 uM, p38i (SB202190) 50 uM", "protocol": "(§1) Cells were seeded in 6-well tissue culture dishes at a subconfluent density and allowed to attach overnight. The following day, cells were treated as indicated in the figures/legends, harvested with versene (Invitrogen), washed with PBS and incubated with primary antibody (10 μg/mL) diluted in staining buffer (PBS pH 7.4, 4% FBS, 0.1% sodium azide) for 30 minutes on ice. […] After incubation with primary antibody, samples were washed with staining buffer and then incubated with secondary antibody (PE-conjugated anti-human antibody; 1:100) for 30 minutes on ice. After incubation, samples were washed with staining buffer and examined on a Becton Dickinson FACSCalibur flow cytometer (BD Immunocytometry Systems, San Jose, Calif.). Data analysis was performed with Becton Dickinson Cell Quest software and the geometric mean fluorescence intensity (GeoMean) was determined for each sample.\n(§2) For the data shown in Table 37, flow cytometry was performed on intact, non-permeabilized cells using the indicated primary monoclonal antibodies. […] The results are reported as GeoMeans. For the data shown in the top panel of Table 37, A375 (melanoma) or SF539 (glioblastoma) cells were treated with the indicated concentrations of MEKi (U0126), RAFKi (553013) or ERKi (FR180204) for 12, 24 or 48 hours prior to analysis. For the data shown in the bottom left panel of Table 37, SKMEL2 (melanoma) cells were treated with MEKi (U0126; 10 uM), imatinib (20 uM), p38i (p38 MAPKi SB202190; 50 uM), NH4Cl (ammonium chloride; 20 mM) or CLQ (chloroquine; 20 uM) for 48 hours prior to analysis. For the data shown in the bottom right panel of Table 37, WM2664 (melanoma) cells were treated with MON (monensin) or MMPi (GM6001) for 48 hours prior to analysis."}, "SKMEL2 cells": {"system": "SKMEL2 cells", "details": "SKMEL2 cells (FIG. 4C)", "protocol": "Cells were seeded in tissue culture dishes at a subconfluent density and allowed to attach overnight. The following day, cells were treated with or without U0126 (1 μM) diluted in growth media and incubated for 48 hours. […] After incubation, photomicrographs were taken and adherent cells were trypsinized, mixed with trypan blue dye and counted on a haemocytometer. Only viable cells which excluded trypan blue were counted. For SKMEL2, cells were seeded in 96-well plates after U0126 treatment and assayed after 72 h using the CellTiter-Glo assay according to the manufacturer's instructions (Promega, Madison, Wis.)."}, "UACC62 melanoma cells": {"system": "UACC62 melanoma cells", "experiment": "In vitro growth-inhibition/cytotoxicity assay, UACC62 cells", "assay_type": "cell-based, human", "details": "UACC62 cells"}, "phospho-ERK (pp-ERK)": {"system": "phospho-ERK (pp-ERK)", "experiment": "Immunoblotting for phospho-ERK (level of ERK activation)", "assay_type": "cell-based, human", "source_text": "In the experiment presented in FIG. 2A, potential inhibition of the ERK pathway was investigated by immunoblotting for phospho-ERK (pp-ERK), which represents the active form of this signaling molecule."}, "[3]": {"system": "GPNMB surface expression on SF539 glioblastoma cells", "experiment": "Flow cytometry of GPNMB surface expression, SF539 cells", "assay_type": "cell-based, human", "details": "SF549, CR011 (anti-GPNMB) primary antibody", "protocol": "as §1\nas §2, with “For the data shown in the top panel of Table 37, A375 (melanoma) or SF539 (glioblastoma) cells were treated with the indicated concentrations of MEKi (U0126), RAFKi (553013) or ERKi (FR180204) for 12, 24 or 48 hours prior to analysis.” left out"}, "[4]": {"system": "GPNMB surface expression on A375 melanoma cells", "experiment": "Flow cytometry of GPNMB surface expression, A375 cells", "assay_type": "cell-based, human", "details": "for GPNMB surface expression, flow cytometry GeoMean: A375, CR011 (anti-GPNMB) primary antibody", "protocol": "as §1\nas §2, with “For the data shown in the top panel of Table 37, A375 (melanoma) or SF539 (glioblastoma) cells were treated with the indicated concentrations of MEKi (U0126), RAFKi (553013) or ERKi (FR180204) for 12, 24 or 48 hours prior to analysis.” left out"}}, "data": [{"compound": "N#CC(=C(/N)Sc1ccccc1N)/C(C#N)=C(\\N)Sc1ccccc1N", "note": "[Mab U0126]", "values": [{"measurement": "expression of MART-1, TYRP-2, TYRP-1, PMEL17", "setting": "[1]", "result": "induced by MEK inhibition in some cell lines"}, {"measurement": "expression of other targets (MAGEA1, MCSP)", "setting": "[1]", "result": "either were not effected or even decreased"}, {"measurement": "GPNMB surface expression, flow cytometry GeoMean", "setting": "[2]", "result": 174.5}, {"measurement": "sensitization to CR011-vcMMAE by pretreatment", "setting": "SKMEL2 cells", "result": "sensitized"}, {"measurement": "sensitization to CR011-vcMMAE by pretreatment, CellTiter-Glo assay (ATP)", "setting": "UACC62 melanoma cells", "result": "confirmed"}, {"measurement": "sensitization to growth-inhibitory activity of CR011-vcMMAE by pretreatment", "setting": "UACC62 melanoma cells", "result": "sensitized"}, {"measurement": "inhibition of the ERK pathway (phospho-ERK levels)", "setting": "phospho-ERK (pp-ERK); A375 and SKMEL2 cell lines (FIG. 3B)", "result": "robust and sustained inhibition"}, {"measurement": "inhibition of the ERK pathway (phospho-ERK levels)", "setting": "phospho-ERK (pp-ERK); SF539 cells (FIG. 3B)", "result": "transient inhibition"}, {"measurement": "GPNMB surface expression, flow cytometry GeoMean", "setting": "[3]; MEKi (U0126) 5 um, 12 h", "result": 41.5}, {"measurement": "GPNMB surface expression, flow cytometry GeoMean", "setting": "[3]; MEKi (U0126) 5 um, 24 h", "result": 36.3}, {"measurement": "GPNMB surface expression, flow cytometry GeoMean", "setting": "[3]; MEKi (U0126) 5 um, 48 h", "result": 41.5}, {"measurement": "GPNMB surface expression, flow cytometry GeoMean", "setting": "[3]; MEKi (U0126) 20 um, 12 h", "result": 46.3}, {"measurement": "GPNMB surface expression, flow cytometry GeoMean", "setting": "[3]; MEKi (U0126) 20 um, 24 h", "result": 39.2}, {"measurement": "GPNMB surface expression, flow cytometry GeoMean", "setting": "[4]; MEKi (U0126) 5 um, 12 h", "result": 14.7}, {"measurement": "GPNMB surface expression, flow cytometry GeoMean", "setting": "[4]; MEKi (U0126) 5 um, 24 h", "result": 16.4}, {"measurement": "GPNMB surface expression, flow cytometry GeoMean", "setting": "[4]; MEKi (U0126) 5 um, 48 h", "result": 52.4}, {"measurement": "GPNMB surface expression, flow cytometry GeoMean", "setting": "[4]; MEKi (U0126) 20 um, 12 h", "result": 18.3}, {"measurement": "GPNMB surface expression, flow cytometry GeoMean", "setting": "[4]; MEKi (U0126) 20 um, 24 h", "result": 22.4}, {"measurement": "GPNMB surface expression, flow cytometry GeoMean", "setting": "[4]; MEKi (U0126) 20 um, 48 h", "result": 84.0}, {"measurement": "GPNMB surface expression", "setting": "[4]; A375 melanoma, 12, 24 or 48 hours (Table 37, top)", "result": "induced GPNMB surface expression"}]}]}
